# Assay results published in US20230126992A1, “Antibacterial Antiviral Pharmaceutical Composition and Application Thereof” (priority 2020, published 2023).
# “And” between values parts separate entries of the source, which are not always exact repeats. Equal entries are not always repeated. Structures can show the parent of a compound that is named as a salt. Where two headings read alike, the source gives them in different places.
# Key:
# SARS-CoV-2 [1] = assay: Test of direct killing of virus; assay type: cell-based
# SARS-CoV-2 [2] = conditions: for Inhibition rate to SARS-CoV-2 induced cell death: drug 1 hour after infection
# SARS-CoV-2 [3] = assay: microbe, parasite or virus in culture
# SARS-CoV-2 [4] = assay: Inhibition of Vero E6 cell death induced by SARS-CoV-2, simultaneous addition of drug and virus; conditions: for Inhibition rate to SARS-CoV-2 induced cell death: simultaneous addition
# Vero E6 cells = assay: Toxicity test to Vero E6 cells (CCK8); conditions: 3 days
# [5] = system: tracheal excretion of phenol red of mice; assay: Tracheal excretion of phenol red in mice; conditions: dose 30 mg/kg intragastric, 7 days; 546 nm
# [6] = system: asthma of guinea pigs induced by acetylcholine and histamine phosphate; assay: Asthmatic guinea pigs induced by acetylcholine combined with histamine phosphate (Example 3)
# [7] = system: asthma of guinea pigs induced by acetylcholine and histamine phosphate; assay: Asthmatic guinea pigs induced by acetylcholine combined with histamine phosphate (Example 9)
# [8] = system: LPS-induced fever in rats; assay: LPS induced rat fever model; conditions: dose 200 mg/kg
# [9] = system: capillary discharge sputum volume in rats; assay: Capillary discharge sputum volume in rats (Example 9); conditions: dose 0.2 g/kg intragastric, 7 days
# [10] = system: capillary discharge sputum volume in rats; assay: Capillary discharge sputum volume in rats (Example 3); conditions: dose 200 mg/kg intragastric, 7 days; 2 h collection
# acute pharyngitis rats = assay: Acute pharyngitis model in rat, serum IL-6 and TNF-α by ELISA; conditions: dose 5 mg/kg, 3 days
# influenza virus FM1 [11] = assay type: in vivo, ICR mice
# influenza virus FM1 [12] = assay type: in vivo, ICR mice; conditions: dose 27.5 mg/kg, 7 days
# influenza virus FM1 [13] = assay type: in vivo, ICR mice; conditions: dose 27.5 mg/kg
# [14] = system: concentrated ammonia water induced cough in mice; assay: Concentrated ammonia water induced cough test in mice (Example 3); assay type: in vivo, ICR mice; conditions: dose 20 mg/kg intragastric, 7 d
# [15] = system: concentrated ammonia water induced cough in mice; assay: Concentrated ammonia water induced cough test in mice (Example 9, dropping pills); assay type: in vivo, ICR mice; conditions: dose 0.02 g/kg intragastric, 7 days
# [16] = addition of the drug after infection
# [17] = concentration 0.064 μM, 0.064 µM
# [18] = simultaneous addition of the drug and virus
# [19] = dose 60 mg/kg intragastric, 7 d
# [20] = dose 0.06 g/kg intragastric, 7 days
# [21] = lung tissue homogenate, dose 27.5
smiles,measurement,setting,value
"OO [Example H2O2, H2O2]",Inhibition rate (killing effect),SARS-CoV-2 [1]; 0.01% incubated with virus 0 min,82.13 ± 8.64% and 92.94 ± 6.31%
same,Inhibition rate (killing effect),SARS-CoV-2 [1]; 0.01% incubated with virus 5 min,98.16 ± 18.42% and 99.25 ± 2.95%
same,Inhibition rate (killing effect),SARS-CoV-2 [1]; 0.01% incubated with virus 10 min,89.87 ± 7.26% and 98.25 ± 2.36%
same,Inhibition rate (killing effect),SARS-CoV-2 [1]; 0.01% incubated with virus 30 min,102.74 ± 8.56% and 102.50 ± 14.39%
same,Inhibition rate (killing effect),SARS-CoV-2 [1]; 0.01% incubated with virus 60 min,95.28 ± 10.93% and 101.35 ± 11.45%
CCC(CC)COC(=O)[C@H](C)N[P@](=O)(OC[C@H]1O[C@@](C#N)(c2ccc3c(N)ncnn23)[C@H](O)[C@@H]1O)Oc1ccccc1 [Remdesivir],IC50,SARS-CoV-2 [2]; [16],734 nM and 915 nM
same,TI (CC50/IC50),SARS-CoV-2 [2]; [16],> 242.42
same,Inhibition rate to SARS-CoV-2 induced cell death,SARS-CoV-2 [2]; [17],6.51 ± 7.08%
same,Inhibition rate to SARS-CoV-2 induced cell death,"SARS-CoV-2 [2]; concentration 0.32 μM, 0.32 µM",28.39 ± 11.56%
same,Inhibition rate to SARS-CoV-2 induced cell death,"SARS-CoV-2 [2]; concentration 1.6 μM, 1.6 µM",53.50 ± 3.37%
same,Inhibition rate to SARS-CoV-2 induced cell death,"SARS-CoV-2 [2]; concentration 8 μM, 8 µM",92.29 ± 6.68%
same,Inhibition rate to SARS-CoV-2 induced cell death,"SARS-CoV-2 [2]; concentration 40 μM, 40 µM",94.31 ± 5.01%
same,Inhibition rate to SARS-CoV-2 induced cell death,"SARS-CoV-2 [2]; concentration 200 μM, 200 µM",98.83 ± 2.97%
same,inhibition at 0.064 µM,"SARS-CoV-2 [3]; Severe acute respiratory syndrome coronavirus 2, Vero C1008, 1 h, read-out: Inhibition rate to SARS-CoV-2 induced cell death, drug 1 hour after infection, concentration 0.064 μM",7.48 ± 11.8%
same,inhibition at 0.32 µM,"SARS-CoV-2 [3]; Severe acute respiratory syndrome coronavirus 2, Vero C1008, 1 h, read-out: Inhibition rate to SARS-CoV-2 induced cell death, drug 1 hour after infection, concentration 0.32 μM",46.3 ± 15.2%
same,inhibition at 1.6 µM,"SARS-CoV-2 [3]; Severe acute respiratory syndrome coronavirus 2, Vero C1008, 1 h, read-out: Inhibition rate to SARS-CoV-2 induced cell death, drug 1 hour after infection, concentration 1.6 μM",61.5 ± 6.96%
same,inhibition at 8 µM,"SARS-CoV-2 [3]; Severe acute respiratory syndrome coronavirus 2, Vero C1008, 1 h, read-out: Inhibition rate to SARS-CoV-2 induced cell death, drug 1 hour after infection, concentration 8 μM",73.4 ± 3.67%
same,inhibition at 40 µM,"SARS-CoV-2 [3]; Severe acute respiratory syndrome coronavirus 2, Vero C1008, 1 h, read-out: Inhibition rate to SARS-CoV-2 induced cell death, drug 1 hour after infection, concentration 40 μM",91.2 ± 9.91%
same,inhibition at 200 µM,"SARS-CoV-2 [3]; Severe acute respiratory syndrome coronavirus 2, Vero C1008, 1 h, read-out: Inhibition rate to SARS-CoV-2 induced cell death, drug 1 hour after infection, concentration 200 μM",100 ± 9.98%
same,IC50,"SARS-CoV-2 [3]; Severe acute respiratory syndrome coronavirus 2, Vero C1008, addition of the drug after infection",825 ± 128 nM
same,inhibition at 0.32 µM,"SARS-CoV-2 [4]; Severe acute respiratory syndrome coronavirus 2, Vero C1008, read-out: Inhibition rate to SARS-CoV-2 induced cell death, simultaneous addition, concentration 0.32 μM",21.3 ± 12.8%
same,inhibition at 1.6 µM,"SARS-CoV-2 [4]; Severe acute respiratory syndrome coronavirus 2, Vero C1008, read-out: Inhibition rate to SARS-CoV-2 induced cell death, simultaneous addition, concentration 1.6 μM",56 ± 7.66%
same,inhibition at 8 µM,"SARS-CoV-2 [4]; Severe acute respiratory syndrome coronavirus 2, Vero C1008, read-out: Inhibition rate to SARS-CoV-2 induced cell death, simultaneous addition, concentration 8 μM",89.2 ± 1.29%
same,inhibition at 40 µM,"SARS-CoV-2 [4]; Severe acute respiratory syndrome coronavirus 2, Vero C1008, read-out: Inhibition rate to SARS-CoV-2 induced cell death, simultaneous addition, concentration 40 μM",95.8 ± 8.77%
same,inhibition at 200 µM,"SARS-CoV-2 [4]; Severe acute respiratory syndrome coronavirus 2, Vero C1008, read-out: Inhibition rate to SARS-CoV-2 induced cell death, simultaneous addition, concentration 200 μM",98.9 ± 3.47%
same,IC50,"SARS-CoV-2 [4]; Severe acute respiratory syndrome coronavirus 2, Vero C1008, simultaneous addition of the drug and virus",1120 ± 52 nM
same,IC50,SARS-CoV-2 [4]; [18],1160 nM and 1080 nM
same,TI (CC50/IC50),SARS-CoV-2 [4]; [18],> 178.89
same,Inhibition rate to SARS-CoV-2 induced cell death,SARS-CoV-2 [4]; [17],2.80 ± 2.11% and 9.23 ± 5.11%
same,Inhibition rate to SARS-CoV-2 induced cell death,"SARS-CoV-2 [4]; concentration 0.32 μM, 0.32 µM",26.39 ± 6.35%
same,Inhibition rate to SARS-CoV-2 induced cell death,"SARS-CoV-2 [4]; concentration 1.6 μM, 1.6 µM",59.24 ± 13.49%
same,Inhibition rate to SARS-CoV-2 induced cell death,"SARS-CoV-2 [4]; concentration 8 μM, 8 µM",78.78 ± 9.66%
same,Inhibition rate to SARS-CoV-2 induced cell death,"SARS-CoV-2 [4]; concentration 40 μM, 40 µM",91.04 ± 3.06%
same,Inhibition rate to SARS-CoV-2 induced cell death,"SARS-CoV-2 [4]; concentration 200 μM, 200 µM",94.82 ± 0.89%
same,Cell survival rate,Vero E6 cells; concentration 0.064 μM,101.58 ± 3.33% and 95.44 ± 10.01%
same,Cell survival rate,Vero E6 cells; concentration 0.32 μM,99.55 ± 10.53% and 93.59 ± 6.96%
same,Cell survival rate,Vero E6 cells; concentration 1.6 μM,91.37 ± 10.73% and 98.11 ± 7.16%
same,Cell survival rate,Vero E6 cells; concentration 8 μM,87.35 ± 4.25% and 90.08 ± 1.88%
same,Cell survival rate,Vero E6 cells; concentration 40 μM,76.24 ± 8.59% and 77.22 ± 11.23%
same,Cell survival rate,Vero E6 cells; concentration 200 μM,53.84 ± 3.48% and 71.58 ± 3.12%
Nc1c(Br)cc(Br)cc1CN[C@H]1CC[C@H](O)CC1 [ambroxol hydrochloride],Tracheal excretion amount of phenol red,[5],0.566 ± 0.201 OD value
Cn1c(=O)c2[nH]cnc2n(C)c1=O [aminophylline],"asthma incubation period, Pre-administration","[6]; 60 mg/kg group, before administration (baseline)",33.1 ± 9.2 s
same,"asthma incubation period, Post-administration",[6]; [19],123.4 ± 50.3 s
same,"asthma incubation period, extension value (post-pre)",[6]; [19],90.3 ± 51.1 s
same,"Asthma incubation period, pre-administration","[7]; 0.06 g/kg group, before administration (baseline)",36.9 ± 5.8 s
same,"asthma incubation period, Post-administration",[7]; [20],95.3 ± 37.6 s
same,"asthma incubation period, extension value (post-pre)",[7]; [20],58.4 ± 32.1 s
CC(=O)Oc1ccccc1C(=O)O [aspirin],Temperature difference (ΔT),[8]; 1 h after LPS,0.10 ± 0.34 °C
same,Temperature difference (ΔT),[8]; 2 h after LPS,0.43 ± 0.29 °C
same,Temperature difference (ΔT),[8]; 3 h after LPS,0.42 ± 0.24 °C
same,Temperature difference (ΔT),[8]; 4 h after LPS,0.46 ± 0.34 °C
same,Temperature difference (ΔT),[8]; 5 h after LPS,0.79 ± 0.17 °C
same,Temperature difference (ΔT),[8]; 6 h after LPS,0.88 ± 0.18 °C
same,Temperature difference (ΔT),[8]; 7 h after LPS,0.53 ± 0.24 °C
N[C@@H](CSCC(=O)O)C(=O)O [carbocisteine],Sputum excretion volume,[9],21.56 ± 4.41 cm
same,Sputum excretion volume,[10],18.11 ± 4.32 cm
C[C@@H]1C[C@H]2[C@@H]3CCC4=CC(=O)C=C[C@]4(C)[C@@]3(F)[C@@H](O)C[C@]2(C)[C@@]1(O)C(=O)CO [dexamethasone],IL-6,acute pharyngitis rats,146.3 ± 10.4 pg/mL
same,TNF-α,acute pharyngitis rats,218.2 ± 5.8 pg/mL
CCOC(=O)C1=C[C@@H](OC(CC)CC)[C@H](NC(C)=O)[C@@H](N)C1 [oseltamivir],Lung index,"influenza virus FM1 [11]; dose 27.5 mg/kg intraperitoneal, 7 days",0.89 ± 0.20
same,IL-8,influenza virus FM1 [11]; [21],80.3 ± 15.3 pg/mL
same,TNF-α,influenza virus FM1 [11]; [21],65.2 ± 17.5 pg/mL
same,Lung index,influenza virus FM1 [12],0.95 ± 0.13
same,Lung index inhibition rate,influenza virus FM1 [12],41.0%
same,Lung index,influenza virus FM1 [13],0.89 ± 0.17
CCN(CC)CCOCCOC(=O)C1(c2ccccc2)CCCC1 [pentoxyverine citrate],Cough incubation period,[14],26.3 ± 3.3 s
same,Frequency of cough,[14],55.8 ± 14.7 time/2 min
same,Cough incubation period,[15],23.3 ± 4.2 s
same,Frequency of cough,[15],40.6 ± 12.5 time/2 min
